The values that follow come from US20250144187A1, “COMBINATION OF HYDROLASES AND ANTI-MICROORGANISM DRUGS AND USES THEREOF” (CENTRE FOR EYE AND VISION RESEARCH LIMITED, priority 2023, published 2025).

The subject of assay [1] is MRSA. As to the kind of experiment: Check board broth micro-dilution assay, tedizolid phosphate with lysozyme. It is filed as cell-based, Staphylococcus aureus. Here is the method:
(§1) 2) Check board broth micro-dilution assays. According to standard two-fold dilution method [Sun. H et al., Nat. Commun. 11, 5263 (2020) tedizolid phosphate at different concentrations were added into fresh LB medium (or trypticase soy troth medium with 5% defibrinated horse blood) containing different concentrations of human lysozyme in 96-well plate. Then, 20 μl of 1.0×10^7 CFU/ml logarithmic cultures of MRSA or MRSE were added into each well of the plate and co-incubated overnight. Drug-free LB medium in the absence or presence of bacteria served as background control and growth control group, respectively. […] Thus, there would be a series of FICI values. In most of cases, the lowest one among these values was listed to reflect the best achieving degree of combination therapy. In terms of the lowest FICI, FICI≤0.5, 0.5<FICI<1 or FICI≥1, would indicate the combination has synergy, part synergy or non-synergy effects, respectively.
(In general: In broth dilution the organism is exposed to a series of concentrations in liquid medium.)

For assay [2], the system named is MRSA. The experiment in a line: Check board broth micro-dilution assay, cefdinir with lysozyme. The assay is classed as cell-based, Staphylococcus aureus. Particulars: for effect of LTA/WTA synthesis inhibitor on cefdinir/lysozyme combination (FICI): inhibitor added into bacterial suspension. Here is the method: 2) Check board broth micro-dilution assays. According to standard two-fold dilution method [Sun H et al., Nat Commun 11, 5263 (2020)], cefdinir at different concentration was added into fresh LB medium (or trypticase soy broth medium with 5% defibrinated horse blood) containing different concentration of human lysozyme in 96-wells plate. After well mixed, about 20 μl of 1.0×10^7 CFU/ml logarithmic cultures of MRSA, MRSE, Streptococcus pyogenes (S. py), Streptococcus mutans (S. mu), Enterococcus faecium (E. faecium), Enterococcus faecalis (E. faecalis) and Corynebacterium pseudodiphtheriticum (C. ps) were added into each well of the plate und co-incubated overnight, Wells without any drugs served as growth controls, and wells without bacteria served as background controls. The inhibition ratio was calculated as [1−(ODsample−ODbackground)/(ODcontrol−ODbackground)]×100%. Besides, bacterial growth inhibition was also monitored by serial dilution in LB-agar plate. CFU was counted by performing 10-fold serial dilution in PBS and then spotting 10 μl of dilutions in LB-agar plate. The MIC was determined as the lowest concentration of a drug that could inhibit the […] growth of microorganism by both visual CFU and OD600 using a microtiter plate reader. Fractional inhibitory concentration (FIC) and fractional inhibitory concentration index (FICI) values were determined by standard method. Briefly, FICI=MICAB/MICA+MICBA/MICB=FICA+FICB. […] Thus, there would be a series of FICI values. In most of Cases the lowest one among these values was listed to reflect the best achieving degree of combination therapy. In terms of the lowest FICI, FICI≤0.5, 0.5<FICI<1 or FICI≥1, would indicate the combination has synergy, part synergy or non-synergy effects, respectively.

The test system of assay [3] is MRSA. The experiment in a line: High-throughput screening of 1953 FDA-approved compounds with human lysozyme. The following applies: compound 25 μM + 1 mg/ml lysozyme, 24-hour. The assay is classed as cell-based, Staphylococcus aureus. Here is the method:
(§2) 1) High-throughput screening. According to standard screening method [Zhong. […] Commun. 11, 523 (2020)], 1953 FDA-approved compounds from our drugs library at a fixed concentrations of 25 μM were screened against methicillin-resistant Staphylococcus aureus (MRSA) and Staphylococcus epidermis (a coagulase negative Staphylococci, MRSE), in combination with human lysozyme. Specifically, these compounds were added into bacterial suspensions (1×10^5 CFU/ml, in LB medium) in the absence or presence of 1 mg/ml lysozyme. LB medium without bacteria served as background group. Then, the real-time growth curvet of MRSA were monitored per hour and for 24 hours. Absorbance at 600 am (OD600) of bacterial culture at the time point of 24-hour was also measured. The inhibition ratio (%) was calculated as (ODcontrol−ODsample)/(ODcontrol−ODbackground)×100%. […] Herein, the relative and apparent inhibition ratios indicated the combination effect and potential toxicity of compound, respectively. Synergy effect was defined as the relative inhibition ratio of ≥90%. All assays were performed in triplicate.

Assay [4] has as its system MRSE. Described as above. The following applies: compound 25 μM + 1 mg/ml lysozyme, 24-hour. The assay is classed as cell-based, Staphylococcus epidermis. How it is done:
as §2

The test system of assay [5] is methicillin-resistant Staphylococcus aureus USA 300 (MRSA, ATCC-BAA1556). As to the kind of experiment: Check board broth micro-dilution assay, auranofin with human lysozyme. It is filed as cell-based. Here is the method:
Then, about 5.0×10^5 colony-forming units (CFUs) of methicillin-resistant Staphylococcus aures (MRSA, USA300 strain) in log phase were added into each well for overnight culture. Bacterial growth inhibition was monitored by optical density at 600 nm (OD600) and colony units in serial dilution in LB agar plate. Well without any drug served as growth control, and well without bacteria served as background control. The inhibition ratio was calculated as […]. CFUs were counted by 10-fold serial dilution in phosphate buffered saline (PBS) and 10 μl of dilutions were spotted in LB agar plate. […] Briefly, FICI=MICAB/MICA+MICBA/MICB=FICA+FICB. […] Thus, there would be a series of FICI values. In most of cases, the lowest one among these values was listed to reflect the best achieving degree of combination therapy. In terms of the lowest FICI, FICI≤0.5, 0.5<FICI<1 or FICI≥1, would indicate whether the combination has synergy, part synergy or non-synergy effects, respectively. Besides, to better highlight the inhibition degree of bacterial growth in combination therapy or identify whether combination therapy has synergy effect, results might be shown by heat-maps or line-charts containing different FICI values, although they were performed by using same 2-fold dilution method. All assays were performed in triplicate.

Assay [6] deals with MRSA. The experiment in a line: Time-killing curves, auranofin/lysozyme. The assay is classed as cell-based, Staphylococcus aureus. The following applies: drug alone: 0.34 μg/ml auranofin or 0.5 mg/ml lysozyme. Here is the method: 2) Time-killing curves According to standard method [K. R. V. Thappeta et al., (2020) ACS Infect Dis 6: 1228-1237], over-night cultured MRSA was diluted and aliquoted into new sterile tubes at 1:1000 ratio. Then, the bacterial suspension was co-cultured with […] auranofin, 0.5 mg/ml lysozyme or their combination at 37° C. with shaking at 200 rpm. Similar bacterial suspension without any additions served as control group. Then, 20 μl of each culture was extracted at time intervals of […] and 22 hours to determine CFUs by spotting 10 μl of 10-fold dilution on the LB agar plates and incubating at 37° C. for 24 hours prior to enumeration. All assays were performed in triplicate.

Assay [7] deals with MRSE. The experiment in a line: Check board broth micro-dilution assay, cefdinir with lysozyme. The assay is classed as cell-based, Staphylococcus epidermidis. The following applies: lysozyme alone. Here is the method:
2) Check board broth micro-dilution assays. According to standard two-fold dilution method [Sun H et al., Nat Commun 11, 5263 (2020)], cefdinir at different concentration was added into fresh LB medium (or trypticase soy broth medium with 5% defibrinated horse blood) containing different concentration of human lysozyme in 96-wells plate. After well mixed, about 20 μl of 1.0×10^7 CFU/ml logarithmic cultures of MRSA, MRSE, Streptococcus pyogenes (S. py), Streptococcus mutans (S. mu), Enterococcus faecium (E. faecium), Enterococcus faecalis (E. faecalis) and Corynebacterium pseudodiphtheriticum (C. ps) were added into each well of the plate und co-incubated overnight, Wells without any drugs served as growth controls, and wells without bacteria served as background controls. The inhibition ratio was calculated as [1−(ODsample−ODbackground)/(ODcontrol−ODbackground)]×100%. Besides, bacterial growth inhibition was also monitored by serial dilution in LB-agar plate. CFU was counted by performing 10-fold serial dilution in PBS and then spotting 10 μl of dilutions in LB-agar plate. The MIC was determined as the lowest concentration of a drug that could inhibit the […] growth of microorganism by both visual CFU and OD600 using a microtiter plate reader. Fractional inhibitory concentration (FIC) and fractional inhibitory concentration index (FICI) values were determined by standard method. […]

Assay [8] concerns MRSE. As to the kind of experiment: Check board broth micro-dilution assay, tedizolid phosphate with lysozyme. The assay is classed as cell-based, Staphylococcus epidermis. Particulars: lysozyme alone. Here is the method: as §1

Several values for one entry are separate records, joined by “and”; a condition that tells them apart may be missing. Equal values may be shown once.

Turning to `N#CC(C#N)=NNc1cccc(Cl)c1` [CCCP, Carbonyl cyanide m-chlorophenyl hydrazone], the “effect of ion-targeting inhibitor on FICI of tedizolid phosphate/lysozyme combination” value in the assay with MRSA [1] (cells incubated with the inhibitor) is on record as “significant increase in FICI”.

For the compound `O=C(COC(=O)Cc1coc2ccc3ccccc3c12)Nc1nnc(-c2ccccc2)o1` [LtaS-IN-1], the “effect of LTA/WTA synthesis inhibitor on cefdinir/lysozyme combination (FICI)” value with MRSA [2] is recorded as “abolish the combination effect”.

Regarding `CC1(C)S[C@@H]2[C@H](NC(=O)[C@H](N)c3ccccc3)C(=O)N2[C@H]1C(=O)OCOC(=O)[C@@H]1N2C(=O)C[C@H]2S(=O)(=O)C1(C)C` [Sultamicillin], in the assay on MRSA [3], the “Growth inhibition ratio (mean ± SD, %) MRSA” value is 58.05 ± 16.75%. Besides, the “Growth inhibition ratio (mean ± SD, %) MRSE” value in the assay with MRSE [4] came to 45.94 ± 13.49%.

Turning to `CCN(CC)c1nc2c(S(=O)(=O)c3ccc(Cl)cc3)nnn2c2cc(OC)c(OC)cc12` [Targocil], the “effect of LTA/WTA synthesis inhibitor on cefdinir/lysozyme combination (FICI)” value in the assay with MRSA [2] is “abolish the combination effect”.

For the compound `CC[C@H]1OC(=O)C[C@@H](O)[C@H](C)[C@@H](O[C@@H]2O[C@H](C)[C@@H](O)[C@H](N(C)C)[C@H]2O)[C@@H](CCN2C[C@H](C)C[C@H](C)C2)C[C@@H](C)C(=O)/C=C/C(C)=C/[C@@H]1CO[C@@H]1O[C@H](C)[C@@H](O)[C@@H](OC)[C@H]1OC` [Tilmicosin], in the assay on MRSA [3], the “Growth inhibition ratio (mean ± SD, %) MRSA” value was determined as 91.59 ± 0.63%. Further, the “Growth inhibition ratio (mean ± SD, %) MRSE” value in the assay with MRSE [4] came out at 4.91 ± 8.1%.

Turning to “lysozyme: Human lysozyme (C-type) supplied by Sigma-Aldrich; hydrolase used in combination with the drugs”, the results for the “lysozyme level to which MRSA is sensitive (MIC)” value in assay [5] (0.17 μg/ml auranofin used in combination) and in assay [5] (lysozyme alone) were 1.0 mg/mL and not below 150 mg/mL, respectively. The “inhibition effect on growth of MRSA at exponential phase” value in the assay on MRSA [6] is on record as “few inhibitions effect”. Also, the “minimum inhibitory concentration (MIC) of human lysozyme” value with MRSA [2] (lysozyme alone) was > 150 mg/mL and 150 mg/mL; in the assay on MRSE [7], more than 150 mg/mL; in the assay with MRSA [1] (lysozyme alone), more than 150 mg/mL; in the assay on MRSE [8] it was more than 150 mg/mL. The “drop of MIC value of lysozyme” value in the assay with MRSA [2] (with cefdinir at ca. 0.75 μg/ml) is 1200 folds. The “MIC value of lysozyme” value with MRSA [2] (with cefdinir at ca. 0.75 μg/ml (1.89 μM)) is 0.125 mg/mL; with MRSA [1] (with tedizolid phosphate at ca. 0.19 μg/ml (0.4 μM, 0.004 MIC)) it was 0.1235 mg/mL. Besides, the “reduction of the MIC value of lysozyme” value with MRSA [1] (with tedizolid phosphate at ca. 0.19 μg/ml) stood at 1200 fold.

Turning to poly-l-lysine, the FICI with MRSA [1] (poly-l-lysine in place of lysozyme, combined with tedizolid phosphate) amounted to 0.375.
